In patent US12570638B2, “Fused imidazole derivatives as AHR antagonists” (Sail Biomedicines, Inc., priority 2020, dated 2026):
≈ marks a conversion by molar mass, not a printed value. Read-outs that look alike come from different tables or passages of the source.

Tests used:
[1] = Solubility Determination Assay (PBS, LC-MS/MS); type: physicochemical; conditions: aqueous buffer, kinetic from dmso stock
Method: The stock solutions of test compounds and control compound progesterone were prepared in DMSO at the concentrations of 10 mM. 15 μL of stock solution (10 mM) of each sample was placed in order into their proper 96-well rack. 485 μL of PBS pH 1.6 and pH 7.4 were added into each vial of the cap-less Solubility Sample plate. The assay was performed in singlet. One stir stick was added to each vial and then the vial was sealed using a molded PTFE/Silicone plug. […] After completion of the 2 hours, plugs were removed and the stir sticks were removed using a big magnet. The samples from the Solubility Sample plate were transferred into the filter plate. Using the Vacuum Manifold, all the samples were filtered. An aliquot of 5 μL was taken from the filtrate followed by addition of 495 μL of a mixture of H2O and acetonitrile containing internal standard (1:1). A certain proportion of ultrapure water was used to dilute the diluent according to the peak shape. The dilution factor was changed according to the solubility values and the LC-MS signal response.
From the 10 mM DMSO STD plate, 6 μL was transferred into the remaining empty plate, and then 194 μL of DMSO were added to that plate to have a STD concentration of 300 μM. From the 300 μM DMSO STD plate, 5 μL were transferred into the remaining empty plate, and then 495 μL of a mixture of H2O and acetonitrile containing internal standard (1:1) were added to that plate to have a final STD concentration of 3 μM. A certain proportion of ultrapure water was used to dilute the diluent according to the peak shape. The concentrations of the standard samples were changed according to the LC-MS signal response.
The plate was placed into the well plate autosampler. The samples were evaluated by LC-MS/MS analysis.
All calculations were carried out using Microsoft Excel.
The filtrate was analyzed and quantified against a standard of known concentration using LC coupled with mass spectral peak identification and quantitation. Solubility values of the test compound and control compound were calculated as follows: […]
Any value of the compounds that was not within the specified limits was rejected and the experiment was repeated.
“+++” indicates a solubility value equal to or greater than 10 μM, “++” indicates a solubility value between 1 and 10 μM, and “+” indicates a solubility value less than 1 μM.

[2] = Hepatocyte Stability Assay, human; type: in vitro ADME; conditions: cryopreserved hepatocytes, read-out: Human hepatocyte clearance
Method: Preparation of working solutions: 10 mM stock solutions of test compound and positive control were prepared in DMSO. In separate conical tubes, the 10 mM solution of test compound and the positive control were diluted to 100 μM by combining 198 μL of 50% acetonitrile/50% water and 2 μL of 10 mM stock.
Preparation of Hepatocytes: Incubation medium (William's E Medium supplemented with GlutaMAX) and hepatocyte thawing medium were placed in a 37° C. water bath and allowed warming for at least 15 minutes prior to use. A vial of cryopreserved hepatocytes was transferred from storage, ensuring that vials remained at cryogenic temperatures until thawing process ensued. Cells were thawed by placing the vial in a 37° C. water bath and gently shaking the vials for 2 minutes. […] Using an AO/PI Staining, cells were counted and the viable cell density was determined. Cells with poor viability (<75% viability) were determined to be not acceptable for use. […]
Data Analysis: All calculations were carried out using Microsoft Excel. Peak areas were determined from extracted ion chromatograms. In vitro half-life (t1/2) of parent compound was determined by regression analysis of the percent parent disappearance vs. time curve.
The in vitro half-life (in vitro t1/2) was determined from the slope value: in vitro t1/2=0.693/k […]

[3] = PBS pH 1.6, 25° C., read-out: Aq. Solubility at pH = 1.6
[4] = PBS pH 7.4, 25° C., read-out: Aq. Solubility at pH = 7.4

Row | solubility at 2 h [1, 3] [µM] | solubility at 2 h [1, 4] [µM] | CLint scaled at 1 μM [2] [mL/min/kg] | Structure (SMILES)
1 | > 10 | > 10 | < 20 | Cn1nccc1C(=O)Nc1ccc2nc(-c3ccccc3C(F)(F)F)[nH]c2c1 [A, 1-methyl-N-(2-(2-(trifluoromethyl)phenyl)-1H-benzo[d]imidazol-6-yl)-1H-pyrazole-5-carboxamide]
2 | > 10 | 1 to 10 (≈ 0.386 to 3.86 µg/mL) | < 20 | Cn1ncnc1C(=O)Nc1ccc2nc(-c3ccccc3C(F)(F)F)[nH]c2c1 [Compound H, 1-methyl-N-(2-(2-(trifluoromethyl)phenyl)-1H-benzo[d]imidazol-6-yl)-1H-1,2,4-triazole-5-carboxamide]
